test system: ring stage parasites; test: Parasite growth potency assay, 72 hours, LDH readout; type: cell-based; settings: 72 h, parasite growth measured by LDH assay after 72 hours at 37° C.; 0.7% rings, 2% haematocrit; read-out: EC50
How it was run: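 Parasite growth was quantified by LDH assay after a −80 °C freeze-thaw. Before that, compound was incubated for 72 h at 37 °C under humidified gas with ring-stage cultures adjusted to 0.7% parasitemia and 2% haematocrit in serum- and albumax-supplemented RPMI-Hepes.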

Structure (SMILES)	EC50
CC(C)[C@]1(C)CC(=O)N(Cc2cccc(C(=O)NC3CC(C)(C)Oc4ccccc43)c2)C(=N)N1 (stereo partly drawn) [Example 79, [(4S)-1-[[3-[(2,2-dimethylchroman-4-yl)carbamoyl]phenyl]methyl]-4-isopropyl-4-methyl-6-oxo-hexahydropyrimidin-2-ylidene]ammonium; 2,2,2-trifluoroacetate]	2.1 nM
CCC1(CC)CC(=O)N(Cc2cc(C(=O)NC3CC(C)(C)Oc4ccccc43)ccn2)C(=N)N1 (stereo not shown) [Example 80, [1-[[4-[(2,2-dimethylchroman-4-yl)carbamoyl]pyridin-1-ium-2-yl]methyl]-4,4-diethyl-6-oxo-hexahydropyrimidin-2-ylidene]ammonium; 2,2,2-trifluoroacetate]	1.7 nM
CC#CCCC(c1cccc(C(=O)NC2CC(C)(C)Oc3ccccc32)c1)N1C(=N)NC(CC)(CC)CC1=O (stereo not shown) [Example 83A, [1-[1-[3-[(2,2-dimethylchroman-4-yl)carbamoyl]phenyl]hex-4-ynyl]-4,4-diethyl-6-oxo-hexahydropyrimidin-2-ylidene]ammonium; 2,2,2-trifluoroacetate]	62.9 nM
CCC1(CC)CC(=O)N(Cc2cc(C#N)cc(C(=O)N[C@H]3CCOc4ccccc43)c2)C(=N)N1 [Example 84, [1-[[3-[[(4S)-chroman-4-yl]carbamoyl]-5-cyano-phenyl]methyl]-4,4-diethyl-6-oxo-hexahydropyrimidin-2-ylidene]ammonium; 2,2,2-trifluoroacetate]	8.3 nM
CCC1(CC)CC(=O)N([C@@H](c2cccc(C(=O)N[C@H]3CCOc4ccccc43)c2)c2cncs2)C(=N)N1 [Example 85A, N-[(4S)-chroman-4-yl]-3-[(4,4-diethyl-2-imino-6-oxo-hexahydropyrimidin-1-yl)-thiazol-5-yl-methyl]benzamide]	1 nM
CCC1(COC)CC(=O)N(Cc2cccc(C(=O)N[C@H]3CCOc4ccccc43)c2)C(=N)N1 (stereo partly drawn) [Example 86, [1-[[3-[[(4S)-chroman-4-yl]carbamoyl]phenyl]methyl]-4-ethyl-4-(methoxymethyl)-6-oxo-hexahydropyrimidin-2-ylidene]ammonium; 2,2,2-trifluoroacetate]	49.6 nM
CCC1(COC)CC(=O)N(Cc2cccc(C(=O)N[C@@H]3c4ccccc4C[C@H]3O)c2)C(=N)N1 (stereo partly drawn) [Example 95, [4-ethyl-1-[[3-[[(1R,2R)-2-hydroxyindan-1-yl]carbamoyl]phenyl]methyl]-4-(methoxymethyl)-6-oxo-hexahydropyrimidin-2-ylidene]ammonium; 2,2,2-trifluoroacetate]	43.2 nM
CCC1(CC)CC(=O)N([C@@H](c2cccc(C(=O)N[C@H]3CC(C)(C)Oc4ccccc43)c2)C(C)c2cccnc2)C(=N)N1 (stereo partly drawn) [Example 96, [1-[1-[3-[[(4S)-2,2-dimethylchroman-4-yl]carbamoyl]phenyl]-2-pyridin-1-ium-3-yl-propyl]-4,4-diethyl-6-oxo-hexahydropyrimidin-2-ylidenelammonium; 2,2,2-trifluoroacetate]	19.9 nM
CCC1(COC)CC(=O)N(Cc2cccc(C(=O)N[C@H]3CC(C)(C)Oc4ccccc43)c2)C(=N)N1 (stereo partly drawn) [Example 98A, [1-[[3-[[(4S)-2,2-dimethylchroman-4-yl]carbamoyl]phenyl]methyl]-4-ethyl-4-(methoxymethyl)-6-oxo-hexahydropyrimidin-2-ylidene]ammonium; 2,2,2-trifluoroacetate]	15.5 nM
CCC1(CC)CC(=O)N([C@H](c2cncc(F)c2)c2cccc(C(=O)N[C@H]3CC(C)(C)Oc4ccccc43)c2)C(=N)N1 [Example 99A, [1-[[3-[[(4S)-2,2-dimethylchroman-4-yl]carbamoyl]phenyl]-(5-fluoropyridin-1-ium-3-yl)methyl]-4,4-diethyl-6-oxo-hexahydropyrimidin-2-ylidene]ammonium; 2,2,2-trifluoroacetate]	0.6 nM
CCC1(CC)CC(=O)N([C@@H](c2cncc(F)c2)c2cccc(C(=O)N[C@H]3CC(C)(C)Oc4ccccc43)c2)C(=N)N1 [Example 99B, [1-[[3-[[(4S)-2,2-dimethylchroman-4-yl]carbamoyl]phenyl]-(5-fluoropyridin-1-ium-3-yl)methyl]-4,4-diethyl-6-oxo-hexahydropyrimidin-2-ylidene]ammonium; 2,2,2-trifluoroacetate]	2 nM
CCC1(CC)CC(=O)N([C@H](c2cccnc2)c2cccc(C(=O)N[C@H]3CC(C)(C)Oc4ccccc43)c2)C(=N)N1 [Example 100A, [1-[[3-[[(4S)-2,2-dimethylchroman-4-yl]carbamoyl]phenyl]-pyridin-1-ium-3-yl-methyl]-4,4-diethyl-6-oxo-hexahydropyrimidin-2-ylidene]ammonium; 2,2,2-trifluoroacetate]	0.4 nM
CCC1(CC)CC(=O)N([C@@H](c2cccnc2)c2cccc(C(=O)N[C@H]3CC(C)(C)Oc4ccccc43)c2)C(=N)N1 [Example 100B, [1-[[3-[[(4S)-2,2-dimethylchroman-4-yl]carbamoyl]phenyl]-pyridin-1-ium-3-yl-methyl]-4,4-diethyl-6-oxo-hexahydropyrimidin-2-ylidene]ammonium; 2,2,2-trifluoroacetate]	4.8 nM
CC(C)[C@]1(C)CC(=O)N([C@H](c2cccnc2)c2cccc(C(=O)N[C@H]3CC(C)(C)Oc4ccccc43)c2)C(=N)N1 [Example 101A, [(4S)-1-[[3-[[(4S)-2,2-dimethylchroman-4-yl]carbamoyl]phenyl]-pyridin-1-ium-3-yl-methyl]-4-isopropyl-4-methyl-6-oxo-hexahydropyrimidin-2-ylidene]ammonium; 2,2,2-trifluoroacetate]	0.3 nM
CC(C)[C@]1(C)CC(=O)N([C@@H](c2cccnc2)c2cccc(C(=O)N[C@H]3CC(C)(C)Oc4ccccc43)c2)C(=N)N1 [Example 101B, [(4S)-1-[[3-[[(4S)-2,2-dimethylchroman-4-yl]carbamoyl]phenyl]-pyridin-1-ium-3-yl-methyl]-4-isopropyl-4-methyl-6-oxo-hexahydropyrimidin-2-ylidene]ammonium; 2,2,2-trifluoroacetate]	1.5 nM
CCC[C@H](c1cccc(C(=O)N[C@@H]2c3ccccc3C[C@H]2O)c1)N1C(=N)NC(CC)(CC)CC1=O [Example 102, [4,4-diethyl-1-[(1R)-1-[3-[[(1R,2R)-2-hydroxyindan-1-yl]carbamoyl]phenyl]butyl]-6-oxo-hexahydropyrimidin-2-ylidene]ammonium; 2,2,2-trifluoroacetate]	0.5 nM
CCC1(CC)CC(=O)N([C@H](CCOC)c2cncc(C(=O)N[C@H]3CC(C)(C)Oc4ccccc43)c2)C(=N)N1 [Example 103, [1-[1-[5-I(4S)-2,2-dimethylchroman-4-yl]carbamoyl]pyridin-1-ium-3-yl]-3-methoxy-propyl]-4,4-diethyl-6-oxo-hexahydropyrimidin-2-ylidene]ammonium; 2,2,2-trifluoroacetate]	0.5 nM
COCC[C@H](c1cncc(C(=O)N[C@H]2CC(C)(C)Oc3ccccc32)c1)N1C(=N)N[C@](C)(C(C)C)CC1=O [Example 104, [(4S)-1-[1-[5-[[(4S)-2,2-dimethylchroman-4-yl]carbamoyl]pyridin-1-ium-3-yl]-3-methoxy-propyl]-4-isopropyl-4-methyl-6-oxo-hexahydropyrimidin-2-ylidene]ammonium; 2,2,2-trifluoroacetate]	0.9 nM
CCC1(CC)CC(=O)N(C(c2cncc(C(=O)N[C@H]3CC(C)(C)Oc4ccccc43)c2)c2cncs2)C(=N)N1 (stereo partly drawn) [Example 105A, [1-[[5-[[(4S)-2,2-dimethylchroman-4-yl]carbamoyl]pyridin-1-ium-3-yl]-thiazol-5-yl-methyl]-4,4-diethyl-6-oxo-hexahydropyrimidin-2-ylidene]ammonium; 2,2,2-trifluoroacetate]	0.5 nM
CCC1(CC)CC(=O)N([C@H](c2cncc(F)c2)c2cccc(C(=O)N[C@H]3CCOc4ccccc43)c2)C(=N)N1 [Example 106A, [1-[[3-[[(4S)-chroman-4-yl]carbamoyl]phenyl]-(5-fluoropyridin-1-ium-3-yl)methyl]-4,4-diethyl-6-oxo-hexahydropyrimidin-2-ylidene]ammonium; 2,2,2-trifluoroacetate]	0.5 nM

same assay, conditions: parasite growth measured by LDH assay after 72 hours at 37° C.; 0.7% rings, 2% haematocrit; trifluoroacetate; read-out: EC50

Structure (SMILES)	EC50
CCC1(CC)CC(=O)N(Cc2cncc(C(=O)NC3CC(C)(C)Oc4ccccc43)c2)C(=N)N1 (stereo not shown) [Example 81, [1-[[5-[(2,2-dimethylchroman-4-yl)carbamoyl]pyridin-1-ium-3-yl]methyl]-4,4-diethyl-6-oxo-hexahydropyrimidin-2-ylidene]ammonium; 2,2,2-trifluoroacetate]	1.3 nM
CCC1(CC)CC(=O)N(Cc2cncc(C(=O)NC3CC(C)(C)Oc4ccccc43)c2)C(=N)N1 (stereo not shown) [Example 82, [1-[[5-[(2,2-dimethylchroman-4-yl)carbamoyl]pyridin-1-ium-3-yl]methyl]-4,4-diethyl-6-oxo-hexahydropyrimidin-2-ylidene]ammonium; 2,2,2-trifluoroacetate]	39.4 nM
CC#CCCC(c1cccc(C(=O)NC2CC(C)(C)Oc3ccccc32)c1)N1C(=N)NC(CC)(CC)CC1=O (stereo not shown) [Example 83C, [1-[1-[3-[(2,2-dimethylchroman-4-yl)carbamoyl]phenyl]hex-4-ynyl]-4,4-diethyl-6-oxo-hexahydropyrimidin-2-ylidene]ammonium; 2,2,2-trifluoroacetate]	50.2 nM
CCC1(COC)CC(=O)N(Cc2cccc(C(=O)N[C@H]3CC(C)(C)Oc4ccccc43)c2)C(=N)N1 (stereo partly drawn) [Example 98B, [1-[[3-[[(4S)-2,2-dimethylchroman-4-yl]carbamoyl]phenyl]methyl]-4-ethyl-4-(methoxymethyl)-6-oxo-hexahydropyrimidin-2-ylidene]ammonium; 2,2,2-trifluoroacetate]	8.1 nM
CCC1(CC)CC(=O)N(C(c2cncc(C(=O)N[C@H]3CC(C)(C)Oc4ccccc43)c2)c2cncs2)C(=N)N1 (stereo partly drawn) [Example 105B, [1-[[5-[[(4S)-2,2-dimethylchroman-4-yl]carbamoyl]pyridin-1-ium-3-yl]-thiazol-5-yl-methyl]-4,4-diethyl-6-oxo-hexahydropyrimidin-2-ylidene]ammonium; 2,2,2-trifluoroacetate]	0.6 nM
